Source: patent US20210300936A1, “PYRAZOLOTRIAZOLOPYRIMIDINE DERIVATIVES AS A2A RECEPTOR ANTAGONIST” (BEIGENE, LTD., priority 2018, published 2021)

The molecules below were run against human A2A receptor (A2AR) (Homo sapiens, UniProt P29274) (assay: Luciferase reporter assay (HEK293-A2AR-luc2p/CRE/Hygro cells, 3 nM CGS21680)). Conditions: 3 nM CGS21680, 5 h incubation.
Sequence of human A2A receptor (A2AR) (P29274 whole entry): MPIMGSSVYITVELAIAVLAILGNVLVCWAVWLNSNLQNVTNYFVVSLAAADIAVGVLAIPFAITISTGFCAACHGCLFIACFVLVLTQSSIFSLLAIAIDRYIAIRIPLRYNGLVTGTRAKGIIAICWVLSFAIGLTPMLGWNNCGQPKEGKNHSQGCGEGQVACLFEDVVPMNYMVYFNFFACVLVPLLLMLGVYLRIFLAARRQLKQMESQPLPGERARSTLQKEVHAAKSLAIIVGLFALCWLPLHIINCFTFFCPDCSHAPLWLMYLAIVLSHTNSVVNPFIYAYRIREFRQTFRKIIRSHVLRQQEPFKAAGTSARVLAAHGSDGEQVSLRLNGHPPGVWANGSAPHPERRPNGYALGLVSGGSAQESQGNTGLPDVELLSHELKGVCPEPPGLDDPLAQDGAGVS
Assay type: cell-based
Protocol: HEK293 cells were maintained in Dulbecco's modified Eagle's medium (DMEM, Gibco) supplemented with 10% fetal bovine serum (FBS, Thermo Scientific), 100 units/mL penicillin (Gibco), and 0.1 mg/mL streptomycin (Gibco) in a humidified 37° C. environment with 5% C02. Plasmid encoding wild-type human A2A receptor (A2AR) (in pcDNA3.1) was synthesized by Genscript (Nanjing, China). Transfection of the plasmids was performed in 6-well plates with 4×10^5 cells using Lipofectamin 2000 (ThermoFisher Scientific) according to the instruction of the manufacturer. Cell clones that stably express A2AR were established and maintained in the same complete medium as the HEK293 cells in addition of G-418 (Gibico). Expression level of A2AR in each single cell clone was determined using immunoblotting and FACS method. HEK293-A2AR stable cells were then transfected with pGL4.29[luc2P/CRE/Hygro] (Promega) luciferase reporter plasmid for establishing the HEK293-A2AR-luc2p/CRE/Hygro stable cell line.
HEK293-A2AR-luc2p/CRE/Hygro cells were seeded at a density of 5,000 cells/well in DMEM with 1% FBS and 1 U/mL adenosine deaminase (ADA) (Sigma). After 18 h, the cells were treated with 3 nM CGS21680 plus a series dilution of A2AR antagonist, the compounds disclosed herein at the concentration of 0.1˜10000 nM, prepared in DMEM with 1% FBS. After 5 h incubation, the luciferase activity in cells were measured using the Bright-Glo Luciferase Assay System (Promega) according to manufacturer's instructions. The luminescence signal was measured using a PHERAstar FS plate reader (BMG Labtech). […] Maximal luminescence intensity was determined in the presence of 3 nM CGS21680 and was set as 100%. The IC50 value was calculated from a dose dependent inhibition curve across the range of compound concentrations.
`COCCOc1ccc(N2CCN(C(=O)C(C)n3ncc4c3nc(N)n3nc(-c5ccco5)nc43)CC2)cc1` (single isomer, unassigned) [Compound A1a, 2-(5-amino-2-(furan-2-yl)-7H-pyrazolo[4,3-e][1,2,4]triazolo[1,5-c]pyrimidin-7-yl)-1-(4-(4-(2-methoxyethoxy)phenyl)piperazin-1-yl)propan-1-one] was tested, and the IC50 was 223 nM.
`COCCOc1ccc(N2CCN(C(=O)C(C)n3ncc4c3nc(N)n3nc(-c5ccco5)nc43)CC2)cc1` (single isomer, unassigned) [Compound A1b, 2-(5-amino-2-(furan-2-yl)-7H-pyrazolo[4,3-e][1,2,4]triazolo[1,5-c]pyrimidin-7-yl)-1-(4-(4-(2-methoxyethoxy)phenyl)piperazin-1-yl)propan-1-one] showed an IC50 of 40 nM.
Molecule `CCCC(C(=O)N1CCN(c2ccc(OCCOCCOC)cc2)CC1)n1ncc2c1nc(N)n1nc(-c3ccco3)nc21` (single isomer, unassigned) [Compound A6b, 2-(5-amino-2-(furan-2-yl)-7H-pyrazolo[4,3-e][1,2,4]triazolo[1,5-c]pyrimidin-7-yl)-1-(4-(4-(2-(2-methoxyethoxy)ethoxy)phenyl)piperazin-1-yl)pentan-1-one] has an IC50 of 135 nM.
Molecule `CCCCC(C(=O)N1CCN(c2ccc(OCCOCCOC)cc2)CC1)n1ncc2c1nc(N)n1nc(-c3ccco3)nc21` (single isomer, unassigned) [Compound A11a] has an IC50 of 4.6 nM.
With `CCCCC(C(=O)N1CCN(c2ccc(OCCOCCOC)cc2)CC1)n1ncc2c1nc(N)n1nc(-c3ccco3)nc21` (single isomer, unassigned) [Compound A11b] the IC50 was 121 nM.
Work on `COCCOCCOc1ccc(N2CCN(C(=O)C(CC(C)C)n3ncc4c3nc(N)n3nc(-c5ccco5)nc43)CC2)cc1` (single isomer, unassigned) [Compound A17a] yielded an IC50 of 0.9 nM.
In the case of `COCCOCCOc1ccc(N2CCN(C(=O)C(CC(C)C)n3ncc4c3nc(N)n3nc(-c5ccco5)nc43)CC2)cc1` (single isomer, unassigned) [Compound A17b], the IC50 is reported as 160 nM.
Work on `CC(C)CC(C(=O)N1CCN(c2ccc(F)cc2F)CC1)n1ncc2c1nc(N)n1nc(-c3ccco3)nc21` (single isomer, unassigned) [Compound A22a] yielded an IC50 of 246 nM.
Work on `COCCOc1ccc(N2CCN(C(=O)C(c3ccccc3OC)n3ncc4c3nc(N)n3nc(-c5ccco5)nc43)CC2)cc1` (single isomer, unassigned) [Compound A31a] yielded an IC50 of 8.1 nM.
For `COCCOc1ccc(N2CCN(C(=O)C(c3ccccc3OC)n3ncc4c3nc(N)n3nc(-c5ccco5)nc43)CC2)cc1` (single isomer, unassigned) [Compound A31b], the IC50 was 0.1 nM.
For `CCCC(C(=O)N1CCN(c2ccc(OCCN(C)C)cc2)CC1)n1ncc2c1nc(N)n1nc(-c3ccco3)nc21` (single isomer, unassigned) [Compound A39a], the IC50 was 127 nM.
`COCCOc1ccc(N2CCN(C(=O)C(c3ccccc3F)n3ncc4c3nc(N)n3nc(-c5ccco5)nc43)CC2)cc1` (single isomer, unassigned) [Compound A43a] gave an IC50 of 16.1 nM.
In the case of `COCCOc1ccc(N2CCN(C(=O)C(c3ccccc3)n3ncc4c3nc(N)n3nc(-c5ccco5)nc43)CC2)c(F)c1` (single isomer, unassigned) [Compound A44a], the IC50 is reported as 39.2 nM.
For `COCCOc1ccc(N2CCN(C(=O)C(c3ccccc3)n3ncc4c3nc(N)n3nc(-c5ccco5)nc43)CC2)c(F)c1` (single isomer, unassigned) [Compound A44b], the IC50 was 0.5 nM.
`COCCOc1ccc(N2CCN(C(=O)C(c3ccccc3)n3ncc4c3nc(N)n3nc(-c5ccco5)nc43)CC2C)cc1` (single isomer, unassigned) [Compound A46a] was tested, and the IC50 was 67.4 nM.
`COCCOc1ccc(N2CCN(C(=O)C(c3ccccc3)n3ncc4c3nc(N)n3nc(-c5ccco5)nc43)CC2C)cc1` (single isomer, unassigned) [Compound A46b] showed an IC50 of 0.9 nM.
For `COCCOc1ccc(N2CCN(C(=O)C(c3ccccc3)n3ncc4c3nc(N)n3nc(-c5ccco5)nc43)CC2C)cc1` (single isomer, unassigned) [Compound A47a], the IC50 was 17.3 nM.
With `COCCOc1ccc(N2CCN(C(=O)C(c3ccccc3)n3ncc4c3nc(N)n3nc(-c5ccco5)nc43)CC2C)cc1` (single isomer, unassigned) [Compound A47b] the IC50 was 0.2 nM.
`COCCOc1ccc(N2CCN(C(=O)C(c3ccccc3)n3ncc4c3nc(N)n3nc(-c5ccco5)nc43)C(C)C2)cc1` (single isomer, unassigned) [Compound A50a] gave an IC50 of 88.2 nM.
For `COCCOc1ccc(N2CCN(C(=O)C(c3ccccc3)n3ncc4c3nc(N)n3nc(-c5ccco5)nc43)C(C)C2)cc1` (single isomer, unassigned) [Compound A50b], the IC50 was 1 nM.
`CN(C)CCOc1ccc(N2CCN(C(=O)C(C)(c3ccccc3)n3ncc4c3nc(N)n3nc(-c5ccco5)nc43)CC2)cc1` (single isomer, unassigned) [Compound A71a] gave an IC50 of 10.9 nM.
`CN(C)CCOc1ccc(N2CCN(C(=O)C(C)(c3ccccc3)n3ncc4c3nc(N)n3nc(-c5ccco5)nc43)CC2)cc1` (single isomer, unassigned) [Compound A71b] gave an IC50 of 4.8 nM.
`Nc1nc2c(cnn2C(C(=O)N2CCc3ccccc3C2)c2ccccc2)c2nc(-c3ccco3)nn12` (single isomer, unassigned) [Compound B3a] gave an IC50 of 21.6 nM.
Molecule `Nc1nc2c(cnn2C(C(=O)N2CCc3cc(F)ccc3C2)c2ccccc2)c2nc(-c3ccco3)nn12` (single isomer, unassigned) [Compound B7a] has an IC50 of 29.1 nM.
Molecule `Nc1nc2c(cnn2C(C(=O)N2CCc3cc(F)ccc3C2)c2ccccc2)c2nc(-c3ccco3)nn12` (single isomer, unassigned) [Compound B7b] has an IC50 of 0.5 nM.
With `CCCC(C(=O)N1CCN(c2ccc(OCCOC)cc2)CC1)n1cc2c(nc(N)n3nc(-c4ccco4)nc23)n1` (single isomer, unassigned) [Compound C5a] the IC50 was 55 nM.
`CCCC(C(=O)N1CCN(c2ccc(OCCOC)cc2)CC1)n1cc2c(nc(N)n3nc(-c4ccco4)nc23)n1` (single isomer, unassigned) [Compound C5b] gave an IC50 of 209 nM.
In the case of `COCCOc1ccc(N2CCN(C(=O)C(C3CC3)n3cc4c(nc(N)n5nc(-c6ccco6)nc45)n3)CC2)cc1` (single isomer, unassigned) [Compound C16a], the IC50 is reported as 4.1 nM.
`COCCOc1ccc(N2CCN(C(=O)C(C3CC3)n3cc4c(nc(N)n5nc(-c6ccco6)nc45)n3)CC2)cc1` (single isomer, unassigned) [Compound C16b] gave an IC50 of 168 nM.
Molecule `COCCOc1ccc(N2CCN(C(=O)C(C)(c3ccccc3)n3cc4c(nc(N)n5nc(-c6ccco6)nc45)n3)CC2)cc1` (single isomer, unassigned) [Compound C25a] has an IC50 of 79.8 nM.
For `COCCOc1ccc(N2CCN(C(=O)C(C)(c3ccccc3)n3cc4c(nc(N)n5nc(-c6ccco6)nc45)n3)CC2)cc1` (single isomer, unassigned) [Compound C25b], the IC50 was 21.2 nM.
`COCCOc1ccc(N2CCN(C(=O)C(C)n3ncc4c3nc(N)n3nc(-c5ccco5)nc43)CC2)cc1` (centres unmarked) [Compound A1, 2-(5-amino-2-(furan-2-yl)-7H-pyrazolo[4,3-e][1,2,4]triazolo[1,5-c]pyrimidin-7-yl)-1-(4-(4-(2-methoxyethoxy)phenyl)piperazin-1-yl)propan-1-one] gave an IC50 of 42.9 nM.
